Biological target: T1, KRAS G12C 1-169, his-tagged protein, GDP-loaded (Homo sapiens, UniProt P01116, G12C)
T1 construct: KRAS G12C 1-169, his-tagged protein, GDP-loaded
Test: Covalent binding (% modification) to KRAS G12C by mass spectrometry; note: test concentration or dose not given here

[1] = covalent binding to KRAS G12C after a three minute incubation period
[2] = covalent binding to KRAS G12C after a ten minute incubation period

Row | SMILES | Binding % [1] | Binding % [2]
1 | C=CC(=O)N1CCN(c2nc(N3CC(N(CC)CC)C3)nc3c(F)c(-c4c(O)cccc4F)c(Cl)cc23)[C@@H](C)C1 [Compound 174, 1-((3S)-4-(6-chloro-2-(3-(diethylamino)azetidin-1-yl)-8-fluoro-7-(2-fluoro-6-hydroxyphenyl)quinazolin-4-yl)-3-methyl-piperazin-1-yl) prop-2-en-1-one] | +++ (+++ indicates binding activity greater than 90%) | –
2 | C=CC(=O)N1[C@H](C)CN(c2nc(OCCN3CC(F)(F)C3)nc3c(F)c(-c4c(C)ccc5[nH]ncc45)c(Cl)cc23)C[C@@H]1C [Compound 41, 1-((2R,6S)-4-(6-chloro-2-(2-(3,3-difluoroazetidin-1-yl)ethoxy)-8-fluoro-7-(5-methyl-1H-indazol-4-yl)quinazolin-4-yl)-2,6-dimethyl-piperazin-1-yl) prop-2-en-1-one] | – | ++ (++ indicates binding activity from 50 to 90%)
3 | C=CC(=O)N1C[C@H](C)N(c2nc(N3CC4(CCOCC4)C3)nc3c(F)c(-c4c(C)ccc5[nH]ncc45)c(Cl)cc23)C[C@H]1C [Compound 162, 1-((2R,5S)-4-(6-chloro-8-fluoro-7-(5-methyl-1H-indazol-4-yl)-2-(7-oxa-2-azaspiro[3.5]nonan-2-yl)quinazolin-4-yl)-2,5-dimethyl-piperazin-1-yl) prop-2-en-1-one] | + (+ indicates binding activity greater than 0% and up to 50%) | –
4 | C=CC(=O)N1C[C@H](C)N(c2nc(OCCN3CC(F)(F)C3)nc3c(F)c(-c4c(C)ccc5cn[nH]c45)c(Cl)cc23)C[C@H]1C (atropisomer, axis not shown) [Compound 128, 1-((2R,5S)-4-(6-chloro-2-(2-(3,3-difluoroazetidin-1-yl)ethoxy)-8-fluoro-7-((S)-6-methyl-1H-indazol-7-yl)quinazolin-4-yl)-2,5-dimethyl-piperazin-1-yl) prop-2-en-1-one] | + (+ indicates binding activity greater than 0% and up to 50%) | –
5 | C=CC(=O)N1C[C@@H](C)N(c2nc(N3CC(N(C)C)C3)nc3c(F)c(-c4c(O)cccc4F)c(Cl)cc23)C[C@@H]1C [Compound 81, 1-((2S,5R)-4-(6-chloro-2-(3-(dimethylamino)azetidin-1-yl)-8-fluoro-7-(2-fluoro-6-hydroxyphenyl)quinazolin-4-yl)-2,5-dimethyl-piperazin-1-yl) prop-2-en-1-one] | – | + (+ indicates binding activity up to 50%)
6 | C=CC(=O)N1C[C@@H](C)N(c2nc(OCCc3ccccn3)nc3c(F)c(-c4c(O)cccc4F)c(Cl)cc23)[C@@H](C)C1 [Compound 49, 1-((3S,5R)-4-(6-chloro-8-fluoro-7-(2-fluoro-6-hydroxyphenyl)-2-(2-(pyridin-2-yl)ethoxy)quinazolin-4-yl)-3,5-dimethyl-piperazin-1-yl) prop-2-en-1-one] | – | ++ (++ indicates binding activity from 50 to 90%)
7 | C=CC(=O)N1C[C@H](C)N(c2nc(N3CC(N)C3)nc3c(F)c(-c4c(C)ccc5cn[nH]c45)c(Cl)cc23)C[C@H]1C [Compound 97, 1-((2R,5S)-4-(2-(3-aminoazetidin-1-yl)-6-chloro-8-fluoro-7-(6-methyl-1H-indazol-7-yl)quinazolin-4-yl)-2,5-dimethyl-piperazin-1-yl) prop-2-en-1-one] | ++ (++ indicates binding activity from 50 to 90%) | –
8 | C=CC(=O)N1C[C@H](C)N(c2nc(N3CC(N(CC)CC)C3)nc3c(F)c(-c4c(O)cccc4F)c(Cl)cc23)C[C@H]1C (atropisomer, axis not shown) [Compound 175, 1-((2R,5S)-4-(6-chloro-2-(3-(diethylamino)azetidin-1-yl)-8-fluoro-7-((S)-2-fluoro-6-hydroxyphenyl)quinazolin-4-yl)-2,5-dimethyl-piperazin-1-yl) prop-2-en-1-one] | +++ (+++ indicates binding activity greater than 90%) | –
9 | C=CC(=O)N1[C@H](C)CN(c2nc(N3CC(N(C)C)C3)nc3c(F)c(-c4c(C)ccc5cn[nH]c45)c(Cl)cc23)C[C@@H]1C [Compound 27, 1-((2R,6S)-4-(6-chloro-2-(3-(dimethylamino)azetidin-1-yl)-8-fluoro-7-(6-methyl-1H-indazol-7-yl)quinazolin-4-yl)-2,6-dimethyl-piperazin-1-yl) prop-2-en-1-one] | – | ++ (++ indicates binding activity from 50 to 90%)
10 | C=CC(=O)N1C(C)CN(c2nc(N)nc3c(F)c(-c4c(O)cccc4F)c(Cl)cc23)CC1C (stereo not drawn) [Compound 2, 1-(4-(2-amino-6-chloro-8-fluoro-7-(2-fluoro-6-hydroxyphenyl)quinazolin-4-yl)-2,6-dimethyl-piperazin-1-yl) prop-2-en-1-one] | – | ++ (++ indicates binding activity from 50 to 90%)
11 | C[C@@H]1CN(c2nc(N3CC(N(C)C)C3)nc3c(F)c(-c4c(O)cccc4F)c(Cl)cc23)[C@@H](C)CN1C(=O)/C(C#N)=C/c1ccccn1 [Compound 111, (E)-2-((2R,5S)-4-(6-chloro-2-(3-(dimethylamino)azetidin-1-yl)-8-fluoro-7-(2-fluoro-6-hydroxyphenyl)quinazolin-4-yl)-2,5-dimethyl-piperazine-1-carbonyl)-3-(pyridin-2-yl) acrylonitrile] | + (+ indicates binding activity greater than 0% and up to 50%) | –
12 | C=CC(=O)N1C[C@@H](C)N(c2nc(N3CC(N(C)C)C3)nc3c(F)c(-c4c(O)cccc4F)c(Cl)cc23)C[C@@H]1C [Compound 87, 1-((2S,5R)-4-(6-chloro-2-(3-(dimethylamino)azetidin-1-yl)-8-fluoro-7-(2-fluoro-6-hydroxyphenyl)quinazolin-4-yl)-2,5-dimethyl-piperazin-1-yl) prop-2-en-1-one] | + (+ indicates binding activity greater than 0% and up to 50%) | –
13 | C=CC(=O)N1[C@H](C)CN(c2nc(NC3CCN(C4CC4)CC3)nc3c(F)c(-c4c(O)cccc4F)c(Cl)cc23)C[C@@H]1C [Compound 20, 1-((2R,6S)-4-(6-chloro-2-((1-cyclopropyl-piperidin-4-yl)amino)-8-fluoro-7-(2-fluoro-6-hydroxyphenyl)quinazolin-4-yl)-2,6-dimethyl-piperazin-1-yl) prop-2-en-1-one] | – | ++ (++ indicates binding activity from 50 to 90%)
14 | C=CC(=O)N1C[C@H](C)N(c2nc(N3CC4(CCN4C)C3)nc3c(F)c(-c4c(C)ccc5[nH]ncc45)c(Cl)cc23)C[C@H]1C [Compound 170, 1-((2R,5S)-4-(6-chloro-8-fluoro-7-(5-methyl-1H-indazol-4-yl)-2-(1-methyl-1,6-diazaspiro[3.3]heptan-6-yl)quinazolin-4-yl)-2,5-dimethyl-piperazin-1-yl) prop-2-en-1-one] | + (+ indicates binding activity greater than 0% and up to 50%) | –
15 | C=CC(=O)N1C[C@H](C)N(c2nc(OCCCN(C)C)nc3c(F)c(-c4c(O)cccc4F)c(Cl)cc23)C[C@H]1C [Compound 172, 1-((2R,5S)-4-(6-chloro-2-(3-(dimethylamino)propoxy)-8-fluoro-7-(2-fluoro-6-hydroxyphenyl)quinazolin-4-yl)-2,5-dimethyl-piperazin-1-yl) prop-2-en-1-one] | +++ (+++ indicates binding activity greater than 90%) | –
16 | C=CC(=O)N1C[C@H](C)N(c2nc(N3CC(N(C)C(C)C)C3)nc3c(F)c(-c4c(C)ccc5[nH]ncc45)c(Cl)cc23)C[C@H]1C [Compound 123, 1-((2R,5S)-4-(6-chloro-8-fluoro-2-(3-(isopropyl (methyl)amino)azetidin-1-yl)-7-(5-methyl-1H-indazol-4-yl)quinazolin-4-yl)-2,5-dimethyl-piperazin-1-yl) prop-2-en-1-one] | + (+ indicates binding activity greater than 0% and up to 50%) | –
17 | C=CC(=O)N1C[C@H](C)N(c2nc(OCCc3ncccn3)nc3c(F)c(-c4c(C)ccc5[nH]ncc45)c(Cl)cc23)C[C@H]1C [Compound 197, 1-((2R,5S)-4-(6-chloro-8-fluoro-7-(5-methyl-1H-indazol-4-yl)-2-(2-(pyrimidin-2-yl)ethoxy)quinazolin-4-yl)-2,5-dimethyl-piperazin-1-yl) prop-2-en-1-one] | +++ (+++ indicates binding activity greater than 90%) | –
18 | C=CC(=O)N1CCN(c2nc(N3CC(N(C)C)C3)nc3c(F)c(-c4c(O)cccc4F)c(Cl)cc23)[C@@H](C)C1 (atropisomer, axis not shown) [Compound 58, 1-((S)-4-((S)-6-chloro-2-(3-(dimethylamino)azetidin-1-yl)-8-fluoro-7-(2-fluoro-6-hydroxyphenyl)quinazolin-4-yl)-3-methyl-piperazin-1-yl) prop-2-en-1-one] | – | +++ (+++ indicates binding activity greater than 90%)
19 | [2H]C([2H])([2H])N(C1CN(c2nc(N3C[C@@H](C)N(C(=O)C=C)C[C@@H]3C)c3cc(Cl)c(-c4cc(O)cc5ccccc45)c(F)c3n2)C1)C([2H])([2H])[2H] (atropisomer, axis not shown) [Compound 229] | + (+ indicates binding activity greater than 0% and up to 50%) | –
20 | C=CC(=O)N1C[C@H](C)N(c2nc(N3CC(N(CC)CC)C3)nc3c(F)c(-c4c(C)ccc5[nH]ncc45)c(Cl)cc23)C[C@H]1C (atropisomer, axis not shown) [Compound 152, 1-((2R,5S)-4-(6-chloro-2-(3-(diethylamino)azetidin-1-yl)-8-fluoro-7-((S)-5-methyl-1H-indazol-4-yl)quinazolin-4-yl)-2,5-dimethyl-piperazin-1-yl) prop-2-en-1-one] | + (+ indicates binding activity greater than 0% and up to 50%) | –
21 | C=CC(=O)N1C[C@H](C)N(c2nc(N3CC(N(C)C(C)C)C3)nc3c(F)c(-c4c(C)ccc5cn[nH]c45)c(Cl)cc23)C[C@H]1C [Compound 122, 1-((2R,5S)-4-(6-chloro-8-fluoro-2-(3-(isopropyl (methyl)amino)azetidin-1-yl)-7-(6-methyl-1H-indazol-7-yl)quinazolin-4-yl)-2,5-dimethyl-piperazin-1-yl) prop-2-en-1-one] | ++ (++ indicates binding activity from 50 to 90%) | –
